Our source for the concentration, Kp and inhibition values is patent publication US20220009920A1 (GB005, Inc., priority 2020, published 2022).

Read-outs that look alike come from different tables or passages of the source.

Data set [1] can be described thus: Plasma and total brain concentrations at 1 h post single oral administration to female C57BL/6 mice. It is filed as in vivo. Particulars: mouse, 10 mg/kg oral gavage; for Kp at 1 h: brain/plasma, read-out: brain to plasma ratio. As to the method: The appropriate amount of test article was dissolved 10% dimethylacetamide (DMA)/90% (20% hydroxypropyl-β-cyclodextrin (HP-B-CD) w/v in water to obtain a final concentration of 1 mg/mL for oral dosing. Sonication, vortex, and homogenization was used as needed. Three female C57BL/6 mice aged 7-9 weeks (20-30 grams) were dosed by oral gavage 10 mg/kg solution of the test article.
Concentrations of test compounds in the plasma and brain samples (use plasma and brain homogenate standard curve for all samples appropriately) were analyzed using LC-MS/MS. Compounds having a brain-to-plasma ratio of greater than 0.2 were considered brain penetrant.

In data set [2] the target is T1, CLK2 (Homo sapiens, UniProt P49760).
T1 construct: AssayQuant Technologies, Inc. (service laboratory)
T1 sequence (P49760 whole entry, species assumed): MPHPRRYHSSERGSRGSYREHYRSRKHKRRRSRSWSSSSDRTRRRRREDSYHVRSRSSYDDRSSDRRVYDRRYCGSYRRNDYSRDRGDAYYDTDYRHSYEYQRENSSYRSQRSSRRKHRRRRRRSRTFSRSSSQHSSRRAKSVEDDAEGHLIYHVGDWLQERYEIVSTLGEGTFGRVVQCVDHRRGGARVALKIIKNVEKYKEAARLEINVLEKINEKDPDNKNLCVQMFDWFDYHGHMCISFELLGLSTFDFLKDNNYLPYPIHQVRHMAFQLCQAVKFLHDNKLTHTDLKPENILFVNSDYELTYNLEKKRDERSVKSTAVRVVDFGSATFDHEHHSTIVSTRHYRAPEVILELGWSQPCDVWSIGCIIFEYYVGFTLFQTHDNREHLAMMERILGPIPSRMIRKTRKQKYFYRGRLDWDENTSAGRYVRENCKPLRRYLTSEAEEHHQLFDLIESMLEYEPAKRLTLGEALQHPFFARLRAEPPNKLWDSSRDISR
In words: Large panel kinase profiling. It is filed as biochemical. The note with it: 1 μM test article, 1 mM ATP. The procedure, abridged:
(§1)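 Steps: combine kinase, CSox-Sensor substrate, 1 mM ATP and 1 μM compound; seal and incubate at 30° C.; read top fluorescence kinetically each minute, Ex 360 nm/Em 485 nm.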

Data set [3] has as its target T2, EIF2AK3/PEK (Homo sapiens, UniProt Q9NZJ5).
T2 sequence (Q9NZJ5 30-1116): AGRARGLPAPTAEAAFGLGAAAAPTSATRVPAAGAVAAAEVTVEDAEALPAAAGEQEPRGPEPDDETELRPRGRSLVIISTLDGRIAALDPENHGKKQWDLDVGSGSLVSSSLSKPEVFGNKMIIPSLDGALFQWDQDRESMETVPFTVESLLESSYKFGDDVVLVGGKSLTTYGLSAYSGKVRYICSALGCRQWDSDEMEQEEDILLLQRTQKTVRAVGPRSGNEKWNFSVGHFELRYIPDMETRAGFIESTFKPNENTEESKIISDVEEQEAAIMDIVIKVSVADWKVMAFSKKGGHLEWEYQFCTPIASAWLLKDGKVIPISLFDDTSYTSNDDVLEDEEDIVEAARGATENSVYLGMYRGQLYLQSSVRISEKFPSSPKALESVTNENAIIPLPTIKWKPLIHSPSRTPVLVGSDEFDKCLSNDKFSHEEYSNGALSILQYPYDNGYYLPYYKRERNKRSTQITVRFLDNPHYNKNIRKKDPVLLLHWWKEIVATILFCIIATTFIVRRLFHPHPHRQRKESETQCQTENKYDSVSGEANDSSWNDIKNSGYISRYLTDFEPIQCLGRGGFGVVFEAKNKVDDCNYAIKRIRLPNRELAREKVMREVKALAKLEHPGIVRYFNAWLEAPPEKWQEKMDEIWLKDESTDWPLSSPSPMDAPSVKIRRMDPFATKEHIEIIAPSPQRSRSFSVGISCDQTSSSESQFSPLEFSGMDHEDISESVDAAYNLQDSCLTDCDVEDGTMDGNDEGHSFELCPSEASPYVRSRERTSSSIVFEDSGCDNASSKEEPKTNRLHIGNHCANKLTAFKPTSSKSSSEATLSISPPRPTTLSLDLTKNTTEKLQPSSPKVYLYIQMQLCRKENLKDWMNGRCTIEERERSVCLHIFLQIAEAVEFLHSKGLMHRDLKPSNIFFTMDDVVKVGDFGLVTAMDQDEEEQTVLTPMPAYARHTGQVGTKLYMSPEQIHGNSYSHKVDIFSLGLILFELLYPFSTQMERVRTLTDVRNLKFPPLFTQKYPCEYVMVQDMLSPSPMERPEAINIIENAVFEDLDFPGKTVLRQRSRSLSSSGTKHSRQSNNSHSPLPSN
In words: Large panel kinase profiling. The format is biochemical. Particulars: 1 μM test article, 1 mM ATP. The procedure, abridged: as §1

The target of data set [4] is T3, IKBKB/IKKB (Homo sapiens, UniProt O14920).
T3 construct: AssayQuant Technologies, Inc. (service provider)
T3 sequence (O14920 1-756): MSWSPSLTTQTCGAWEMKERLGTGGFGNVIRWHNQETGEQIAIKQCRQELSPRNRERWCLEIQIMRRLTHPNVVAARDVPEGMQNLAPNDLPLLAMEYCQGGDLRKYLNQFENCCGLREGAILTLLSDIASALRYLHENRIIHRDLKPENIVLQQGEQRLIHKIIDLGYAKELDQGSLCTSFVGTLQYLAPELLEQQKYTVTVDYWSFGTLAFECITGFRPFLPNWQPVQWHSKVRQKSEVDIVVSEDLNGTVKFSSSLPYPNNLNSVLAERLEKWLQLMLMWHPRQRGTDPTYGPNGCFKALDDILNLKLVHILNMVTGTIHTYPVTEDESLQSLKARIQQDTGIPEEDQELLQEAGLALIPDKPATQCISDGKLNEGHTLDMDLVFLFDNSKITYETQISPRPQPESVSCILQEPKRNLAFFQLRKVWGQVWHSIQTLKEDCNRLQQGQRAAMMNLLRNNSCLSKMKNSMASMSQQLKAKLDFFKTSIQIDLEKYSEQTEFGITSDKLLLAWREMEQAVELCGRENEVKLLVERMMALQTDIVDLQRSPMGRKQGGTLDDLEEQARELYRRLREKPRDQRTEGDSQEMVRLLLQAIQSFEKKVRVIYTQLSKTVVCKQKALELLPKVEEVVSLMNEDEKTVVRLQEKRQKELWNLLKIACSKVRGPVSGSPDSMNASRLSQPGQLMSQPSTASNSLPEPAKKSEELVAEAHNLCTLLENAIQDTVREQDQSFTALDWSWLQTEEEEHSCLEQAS
In words: Large panel kinase profiling. It is filed as biochemical. Particulars: 1 μM test article, 1 mM ATP. The procedure, abridged: as §1

Data set [5] addresses T4, NEK4 (Homo sapiens, UniProt P51957).
T4 construct: AssayQuant Technologies, Inc. (assay service)
In words: Large panel kinase profiling. It is filed as biochemical. The note with it: 1 μM test article, 1 mM ATP. The procedure, abridged:
as §1

Where [6] appears, read: plasma, read-out: Mean [plasma].

T4 sequence (P51957 whole entry, species assumed): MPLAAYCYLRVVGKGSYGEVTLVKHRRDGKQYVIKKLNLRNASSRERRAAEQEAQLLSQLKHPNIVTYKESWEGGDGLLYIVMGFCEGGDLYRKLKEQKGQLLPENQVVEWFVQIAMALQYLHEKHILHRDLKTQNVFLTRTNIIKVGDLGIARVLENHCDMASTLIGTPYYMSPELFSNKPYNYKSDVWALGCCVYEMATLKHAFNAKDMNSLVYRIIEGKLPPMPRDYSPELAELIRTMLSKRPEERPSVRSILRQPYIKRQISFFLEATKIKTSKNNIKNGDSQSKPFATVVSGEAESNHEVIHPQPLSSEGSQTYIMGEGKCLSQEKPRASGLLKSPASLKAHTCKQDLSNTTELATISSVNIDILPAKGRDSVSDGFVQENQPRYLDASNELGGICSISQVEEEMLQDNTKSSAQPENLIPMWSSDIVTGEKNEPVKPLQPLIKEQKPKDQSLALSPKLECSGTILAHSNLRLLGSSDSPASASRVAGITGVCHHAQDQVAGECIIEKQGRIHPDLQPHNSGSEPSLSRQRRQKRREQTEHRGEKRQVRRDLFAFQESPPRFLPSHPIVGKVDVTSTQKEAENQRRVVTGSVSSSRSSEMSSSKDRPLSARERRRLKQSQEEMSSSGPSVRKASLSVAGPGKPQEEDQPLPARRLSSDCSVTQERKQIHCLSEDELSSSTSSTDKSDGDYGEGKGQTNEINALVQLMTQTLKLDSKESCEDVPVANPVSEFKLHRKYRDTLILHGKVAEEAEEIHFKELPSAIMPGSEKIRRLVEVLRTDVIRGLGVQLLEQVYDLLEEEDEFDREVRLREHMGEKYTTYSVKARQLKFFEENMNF

Turning to `C=CC(=O)N1CCCC(c2c(F)cc(C(N)=O)c3[nH]c4c(c23)CCCCC4)C1` (single isomer, unassigned) [Compound 5-6], the concentration at 1 h came out at 16 ng/g in data set [1] (brain, read-out: Mean [brain]) and 42 ng/mL in data set [1] (setting [6]). The Kp at 1 h in data set [1] was 0.4. Further, the inhibition at 1 µM was 0.7% in data set [2], -9.2% in data set [3], 2.5% in data set [4] and -5.3% in data set [5].
`C=CC(=O)N1CCC[C@@H](c2c(F)cc(C(N)=O)c3[nH]c4c(c23)CC2(CC4)CC2)C1` [Compound 6-2, (S)-5-(1-acryloylpiperidin-3-yl)-6-fluoro-1,2,4,9-tetrahydrospiro[carbazole-3,1′-cyclopropane]-8-carboxamide]: the concentration at 1 h in data set [1] (brain, read-out: Mean [brain]) was found to be 18 ng/g; in data set [1] (setting [6]), 78 ng/mL. For the same molecule, the Kp at 1 h in data set [1] was 0.24. Besides, the inhibition at 1 µM in data set [2] was -4.6%; in data set [3], -18.5%; in data set [4], -7.6%; in data set [5], -6.5%.
For the molecule `C=CC(=O)N1CCC[C@@H](c2c(F)cc(C(N)=O)c3[nH]c4c(c23)CCC4)C1` [Compound 10-2, (S)-8-(1-acryloylpiperidin-3-yl)-7-fluoro-1,2,3,4-tetrahydrocyclo-penta[b]indole-5-carboxamide], the concentration at 1 h in data set [1] (brain, read-out: Mean [brain]) stood at 72 ng/g; in data set [1] (setting [6]), 191 ng/mL. Further, in data set [1], the Kp at 1 h worked out at 0.37. Besides, the inhibition at 1 µM in data set [2] is -3.2%; in data set [3] it was -3.5%; in data set [4], -17%; in data set [5], -11.1%.

By inhibition is commonly meant the drop in the measured response relative to a control, in per cent.
